Experimental data: paper PMC8236452, “Pharmacokinetics and safety of rucaparib in patients with advanced solid tumors and hepatic impairment” (Cancer Chemotherapy and Pharmacology, 2021)

Key:
[1] = Urine pharmacokinetics (Ae0–24, CLR) after a single oral dose of rucaparib 600 mg in patients with advanced solid tumors; assay type: in vivo, human; details: single oral rucaparib 600 mg; for Ae0–24, GM / Ae0–24, Mean (SD) / Ae0–24, Median (min–max): urine
Excerpt: Stable deuterium-labeled analytes were used as internal standards.
PK parameters were estimated from the concentration–time profiles.

[2] = human, in vivo
Description: (§1) In Part 1, patients received a single oral dose of rucaparib 600 mg on day 1; PK samples were collected and safety monitored through day 7.
(§2) Sample collection, processing, and shipping were conducted according to standardized protocols shared across study sites. Plasma samples were collected for PK analysis at the predose assessment and at 1, 2, 3, 4, 8, 12, 24, 48, 72, 96, 120, and 144 h postdose. A predose urine sample was collected less than 12 h prior to study drug administration. Total urine was collected 0–12 h and 12–24 h postdose. Total (bound and unbound) concentrations of rucaparib and its metabolite M324 in plasma and urine samples were determined by Q Squared Solutions BioSciences (Ithaca, NY, USA) using validated liquid chromatography mass spectrometry/mass spectrometry methods. Stable deuterium-labeled analytes were used as internal standards. The assay calibration ranges for plasma samples were 5–10,000 ng/mL for rucaparib and 1–1000 ng/mL for M324 with lower limits of quantification (LLOQ) of 5.00 and 1.00 ng/mL, respectively. For urine samples, the calibration range was 500–50,000 ng/mL for both rucaparib and M324, with a LLOQ of 500 ng/mL for both analytes. The precision was within 9.3% CV, and the accuracy was within ± 6.2%.
(§3) PK parameters were estimated from the concentration–time profiles. Actual elapsed time after dosing was used to estimate plasma PK parameters based on noncompartmental methods using Phoenix® WinNonlin® version 8.1.0 (Certara USA, Inc., Princeton, NJ, USA). […] Exploratory PK parameters for M324 calculated based on plasma and urine concentration-time data were Cmax, AUC0–last, AUC0–inf, t1/2, tmax, Ae0–24, and CLR, as data allowed.
(§4) PK parameters were calculated by noncompartmental analysis, analyzed using descriptive statistics, and presented by hepatic functional status. Analysis of variance (ANOVA) was used to compare PK parameters (e.g., Cmax, AUC0–last, and AUC0–inf) between the normal hepatic function group and the moderate hepatic impairment group per NCI-ODWG criteria. PK values were log-transformed before analysis. Baseline covariates (e.g., creatinine clearance [CLcr], sex, age, BMI, and ECOG PS) were tested for any significant effect (P value < 0.05). Geometric least-squares means were used to calculate the ratios of the PK parameters in the hepatic impairment group to those in the control group, along with 90% confidence intervals (CIs). The Wilcoxon rank-sum test was used to compare tmax values between the two groups, and estimates of the median differences were determined, along with 90% CIs. In addition, the relationships between log-transformed PK parameters (AUC0–last, AUC0–inf, Cmax) for rucaparib and M324 and hepatic function parameters (bilirubin and aspartate aminotransferase [AST]) relevant to the classification of hepatic impairment according to NCI-ODWG were explored by a linear regression approach.

[3] = cited from earlier work
[4] = ref unpublished results; cited from earlier work
PARP [5] = details: cited from earlier work
PARP [6] = test system: PARP; parameters: method as in earlier work; details: cited from earlier work
[7] = Plasma pharmacokinetics after a single oral dose of rucaparib 600 mg in patients with advanced solid tumors, by hepatic function group; details: for AUC0–last, Geometric LS means / Cmax, Geometric LS means: ANOVA; for AUC0–inf, GM / AUC0–inf, Mean (SD) / AUC0–inf, Median (min–max) / AUC0–last, GM / AUC0–last, Mean (SD) / AUC0–last, Median (min–max) / Cmax, GM / Cmax, Mean (SD) / Cmax, Median (min–max) / tmax, Median (min–max): single oral rucaparib 600 mg
Description: as §1, §2, §3, §4

[8] = Child–Pugh mild hepatic impairment
[9] = Child–Pugh moderate hepatic impairment
[10] = Child–Pugh severe hepatic impairment
[11] = NCI-ODWG moderate hepatic impairment
[12] = NCI-ODWG normal hepatic function
[13] = NCI-ODWG moderate hepatic impairment (n = 8)
[14] = NCI-ODWG normal hepatic function (n = 8)
[15] = linear regression of log-transformed PK parameter on hepatic function parameter (NCI-ODWG)

O=C(O)c1ccc(-c2[nH]c3cc(F)cc4c3c2CCNC4=O)cc1 [M324]
CLR, GM [1, 8]: 119 mL/min
CLR, Mean (SD) [1, 8]: 121 (26.2) mL/min
CLR, Median (min–max) [1, 8]: 114 (94.7–161) mL/min
CLR, GM [1, 9]: 68.5 mL/min
CLR, Mean (SD) [1, 9]: 90.5 (55.6) mL/min
CLR, Median (min–max) [1, 9]: 104 (12.7–163) mL/min
CLR, GM [1, 10]: 24.8 mL/min
CLR, Mean (SD) [1, 10]: 39.3 (43.1) mL/min
CLR, Median (min–max) [1, 10]: 39.3 (8.84–69.8) mL/min
CLR, GM [1, 11]: 47.7 mL/min
CLR, Mean (SD) [1, 11]: 72.7 (57.6) mL/min
CLR, Median (min–max) [1, 11]: 69.8 (8.84–163) mL/min
CLR, GM [1, 12]: 118 mL/min
CLR, Mean (SD) [1, 12]: 120 (24.0) mL/min
CLR, Median (min–max) [1, 12]: 113 (96.7–161) mL/min
Ae0–24, GM [1, 8]: 13.1 mg
Ae0–24, Mean (SD) [1, 8]: 16.1 (11.9) mg
Ae0–24, Median (min–max) [1, 8]: 14.5 (4.77–40.9) mg
Ae0–24, GM [1, 9]: 4.33 mg
Ae0–24, Mean (SD) [1, 9]: 5.44 (4.06) mg
Ae0–24, Median (min–max) [1, 9]: 4.29 (1.46–12.8) mg
Ae0–24, GM [1, 10]: 1.37 mg
Ae0–24, Mean (SD) [1, 10]: 1.38 (0.193) mg
Ae0–24, Median (min–max) [1, 10]: 1.38 (1.24–1.51) mg
Ae0–24, GM [1, 11]: 3.61 mg
Ae0–24, Mean (SD) [1, 11]: 5.46 (4.96) mg
Ae0–24, Median (min–max) [1, 11]: 2.88 (1.24–12.8) mg
Ae0–24, GM [1, 12]: 10.0 mg
Ae0–24, Mean (SD) [1, 12]: 13.7 (12.3) mg
Ae0–24, Median (min–max) [1, 12]: 10.9 (3.47–40.9) mg
AUC0–last, Geometric mean ratio Moderate/normal (90% CI) [2]: 1.483 (0.766–2.868)
Cmax, Geometric mean ratio Moderate/normal (90% CI) [2]: 1.055 (0.529–2.105)
formation of M324, share of total clearance of rucaparib [3]: ~ 1/3
plasma protein binding [4]: 91%
biological activity, in vitro PARP inhibition data (PARP [5]): not biologically active
activity in in vitro target binding affinity and cytotoxicity assay (PARP [6]): inactive
AUC0–last, Geometric LS means [7, 13]: 5930 h⋅ng/mL
Cmax, Geometric LS means [7, 13]: 76.7 ng/mL
AUC0–last, Geometric LS means [7, 14]: 4000 h⋅ng/mL
Cmax, Geometric LS means [7, 14]: 72.7 ng/mL
AUC0–inf, GM [7, 8]: 5590 h⋅ng/mL
AUC0–inf, Mean (SD) [7, 8]: 5800 (1720) h⋅ng/mL
AUC0–inf, Median (min–max) [7, 8]: 5700 (3960–8340) h⋅ng/mL
AUC0–last, GM [7, 8]: 4740 h⋅ng/mL
AUC0–last, Mean (SD) [7, 8]: 5070 (1910) h⋅ng/mL
AUC0–last, Median (min–max) [7, 8]: 5130 (2330–7890) h⋅ng/mL
Cmax, GM [7, 8]: 97.9 ng/mL
Cmax, Mean (SD) [7, 8]: 111 (62.9) ng/mL
Cmax, Median (min–max) [7, 8]: 98.7 (42.7–235) ng/mL
tmax, Median (min–max) [7, 8]: 4.00 (3.00–24.0) h
AUC0–inf, GM [7, 9]: 3580 h⋅ng/mL
AUC0–inf, Mean (SD) [7, 9]: 3840 (1590) h⋅ng/mL
AUC0–inf, Median (min–max) [7, 9]: 4190 (2100–5230) h⋅ng/mL
AUC0–last, GM [7, 9]: 4550 h⋅ng/mL
AUC0–last, Mean (SD) [7, 9]: 5690 (4710) h⋅ng/mL
AUC0–last, Median (min–max) [7, 9]: 3810 (1930–15,600) h⋅ng/mL
Cmax, GM [7, 9]: 57.4 ng/mL
Cmax, Mean (SD) [7, 9]: 64.1 (33.1) ng/mL
Cmax, Median (min–max) [7, 9]: 50.9 (28.9–118) ng/mL
tmax, Median (min–max) [7, 9]: 23.9 (4.03–72.0) h
AUC0–last, GM [7, 10]: 6840 h⋅ng/mL
AUC0–last, Mean (SD) [7, 10]: 15,900 (20,200) h⋅ng/mL
AUC0–last, Median (min–max) [7, 10]: 15,900 (1550–30,200) h⋅ng/mL
Cmax, GM [7, 10]: 72.5 ng/mL
Cmax, Mean (SD) [7, 10]: 164 (208) ng/mL
Cmax, Median (min–max) [7, 10]: 164 (16.9–311) ng/mL
tmax, Median (min–max) [7, 10]: 73.5 (2.97–144) h
AUC0–inf, GM [7, 11]: 4960 h⋅ng/mL
AUC0–inf, Mean (SD) [7, 11]: 4990 (720) h⋅ng/mL
AUC0–inf, Median (min–max) [7, 11]: 5230 (4190–5570) h⋅ng/mL
AUC0–last, GM [7, 11]: 5930 h⋅ng/mL
AUC0–last, Mean (SD) [7, 11]: 8940 (9600) h⋅ng/mL
AUC0–last, Median (min–max) [7, 11]: 4760 (1550–30,200) h⋅ng/mL
Cmax, GM [7, 11]: 76.7 ng/mL
Cmax, Mean (SD) [7, 11]: 105 (91.8) ng/mL
Cmax, Median (min–max) [7, 11]: 83.7 (16.9–311) ng/mL
tmax, Median (min–max) [7, 11]: 30.0 (2.97–144) h
AUC0–inf, GM [7, 12]: 4750 h⋅ng/mL
AUC0–inf, Mean (SD) [7, 12]: 5220 (2300) h⋅ng/mL
AUC0–inf, Median (min–max) [7, 12]: 4930 (2100–8340) h⋅ng/mL
AUC0–last, GM [7, 12]: 4000 h⋅ng/mL
AUC0–last, Mean (SD) [7, 12]: 4450 (2130) h⋅ng/mL
AUC0–last, Median (min–max) [7, 12]: 3810 (1930–7890) h⋅ng/mL
Cmax, GM [7, 12]: 72.7 ng/mL
Cmax, Mean (SD) [7, 12]: 90.1 (67.4) ng/mL
Cmax, Median (min–max) [7, 12]: 74.5 (28.9–235) ng/mL
tmax, Median (min–max) [7, 12]: 10.1 (3.00–24.0) h
Slope estimate (90% CI), AUC0-last vs AST [7, 15]: 0.001 (–0.001 to 0.004)
Slope estimate (90% CI), AUC0-last vs Bilirubin [7, 15]: –0.004 (–0.018 to 0.011)
Slope estimate (90% CI), Cmax vs AST [7, 15]: 0 (–0.002 to 0.003)
Slope estimate (90% CI), Cmax vs Bilirubin [7, 15]: –0.007 (–0.022 to 0.007)
